# Values quoted from earlier work in patent US20160101079A1 (priority 2014, published 2016).
# Assays:
# [1] = test system: glycoprotein shedding (Ebola virus GP; TACE)
# rotaviruses = conditions: 10 mM
# [2] = test system: Human Foreskin (HF) cells infected with HSV-2-strain G; conditions: 3 to 1.5 mM
Compound,concentration at which inhibition of GP shedding was observed [1],further results
CNC(=O)[C@@H](NC(=O)[C@H](CC(C)C)[C@H](O)C(=O)NO)C(C)(C)C [BB2516],0.5 mM,–
"O=C(O)CN(CCN(CC(=O)O)CC(=O)O)CC(=O)O [EDTA, ethylenediaminetetraacetic acid]",–,"effect on rotavirus particles (rotaviruses): single-shelled, double-layered, non-infectious viral particles"
CNC(=O)[C@H](Cc1c[nH]c2ccccc12)NC(=O)[C@@H](CC(=O)NO)CC(C)C [GM6001],5 mM,–
COc1ccc(S(=O)(=O)N2Cc3ccccc3C[C@@H]2C(=O)NO)cc1 [MMP-8 inhibitor I],5 mM,–
O=C(O)c1ccccn1 [picolinic acid],–,effect on HSV-2 infected HF cells [2]: cause apoptosis of HF infected cells
